This is an account of results in ChEMBL document CHEMBL4837181 (Eur J Med Chem, 2020).

Data set [1] in a line: AUC (0 to infinity) in human up to 1200 mg administered bid. It counts as ADME. Details: time infinity, dose <=1200.
Data set [2] can be described thus: Solubility of compound at pH 7.4. Particulars: buffer. It counts as physicochemical.
Data set [3] can be described thus: Half life in female cynomolgus monkey at 75 mg/kg, po measured on day 1. In kind it is ADME, organism-based, Macaca fascicularis. Particulars: in vivo.
Data set [4] can be described thus: AUC (0 to 24 hrs) in male cynomolgus monkey at 75 mg/kg, po measured on day 1. In kind it is ADME, organism-based, Macaca fascicularis. Details: time < 24 hr, route oral, dose 75 mg/kg. Conditions: in vivo.
Data set [5] is described as follows: Change in AUC(infinity) in rat at 185 umol/kg, po measured upto 72 hrs by LC-MS/MS analysis. In kind it is ADME, organism-based. Particulars: in vivo, at 185 µmol/kg.
A short description of data set [6]: Apparent oral clearance in female cynomolgus monkey at 225 mg/kg, po measured on day 1. In kind it is ADME, organism-based, Macaca fascicularis. Particulars: in vivo.
Data set [7] in a line: Half life in rat at 20 to 900 mg/kg, po. Particulars: in vivo, dose 20-900 mg/kg. In kind it is ADME, organism-based.
A short description of data set [8]: Dose normalized AUC (0 to infinity) in rat at 50 mg/kg, po measured upto 72 hrs by LC-MS/MS analysis. In kind it is ADME, organism-based. Conditions: in vivo.
Data set [9] is described as follows: Tmax in male cynomolgus monkey at 75 mg/kg, po measured on day 1. In kind it is ADME, organism-based, Macaca fascicularis. Particulars: in vivo.
Data set [10] in a line: Volume of distribution in male cynomolgus monkey at 15 mg/kg, iv measured on day 1. In kind it is ADME, organism-based, Macaca fascicularis. Conditions: in vivo.
Data set [11] in a line: Toxicity in po dosed male rat administered twice a day. It counts as organism-based. Conditions: in vivo.
The nature of data set [12]: Cmax in female rat at 180 mg/kg, po BID measured on day 28. In kind it is ADME, organism-based. More on the design: route oral, dose 180 mg/kg. Particulars: in vivo.
The target in the next data set is CYP3A4 (Homo sapiens, UniProt P08684). Kind of data set: Time dependent inhibition of CYP3A4 in human hepatocytes assessed as fold shift relative to control. In kind it is ADME, cell-based, Hepatocyte. Conditions: read-out: FC.
Sequence of CYP3A4 (P08684 whole entry): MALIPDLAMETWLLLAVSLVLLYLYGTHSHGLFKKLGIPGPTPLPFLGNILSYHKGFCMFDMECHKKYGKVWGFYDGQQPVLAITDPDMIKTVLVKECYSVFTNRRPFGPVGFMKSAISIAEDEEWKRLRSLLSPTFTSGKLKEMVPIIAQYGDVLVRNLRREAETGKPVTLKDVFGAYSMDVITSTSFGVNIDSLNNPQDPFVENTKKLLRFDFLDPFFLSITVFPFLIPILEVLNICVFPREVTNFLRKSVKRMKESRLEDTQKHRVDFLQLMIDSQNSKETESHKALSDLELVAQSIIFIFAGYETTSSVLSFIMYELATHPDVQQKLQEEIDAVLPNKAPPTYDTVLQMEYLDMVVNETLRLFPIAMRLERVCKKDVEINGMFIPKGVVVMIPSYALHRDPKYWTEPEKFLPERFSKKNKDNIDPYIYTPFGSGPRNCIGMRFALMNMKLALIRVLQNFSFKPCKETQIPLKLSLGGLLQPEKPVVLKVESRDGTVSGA
Another data set deals with T1, Cytochrome P450 2C8 (Homo sapiens, UniProt P10632).
T1 sequence (P10632 whole entry): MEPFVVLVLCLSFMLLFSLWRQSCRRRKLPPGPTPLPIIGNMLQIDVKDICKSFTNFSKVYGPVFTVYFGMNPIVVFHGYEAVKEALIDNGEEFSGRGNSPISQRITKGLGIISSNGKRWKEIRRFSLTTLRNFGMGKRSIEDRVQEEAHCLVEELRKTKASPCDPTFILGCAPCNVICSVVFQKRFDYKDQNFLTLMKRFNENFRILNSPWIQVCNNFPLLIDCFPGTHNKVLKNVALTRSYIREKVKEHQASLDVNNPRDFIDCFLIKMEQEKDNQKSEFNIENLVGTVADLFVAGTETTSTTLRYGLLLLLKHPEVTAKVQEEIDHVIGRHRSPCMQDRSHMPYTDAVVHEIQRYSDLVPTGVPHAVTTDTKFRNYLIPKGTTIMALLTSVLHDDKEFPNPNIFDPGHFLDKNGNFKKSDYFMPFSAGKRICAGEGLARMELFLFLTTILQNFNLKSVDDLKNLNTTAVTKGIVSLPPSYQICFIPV
Briefly: Inhibition of CYP2C8 in human hepatocytes. In kind it is ADME, cell-based, Hepatocyte.

Data set [13] in a line: Toxicity in po BID rat assessed as NOAEL. In kind it is organism-based. Conditions: in vivo.
Data set [14] in a line: Drug metabolism in cynomolgus monkey assessed as ratio of indoximod to parent compound at 75 to 675 mg/kg, po administered as single dose. In kind it is ADME, organism-based, Macaca fascicularis. Particulars: in vivo, dose 75-675 mg/kg.
Data set [15] can be described thus: Solubility of the compound in buffer at pH 1.58 to 6.7. It counts as physicochemical.
Data set [16] in a line: Drug metabolism in cynomolgus monkey hepatocytes assessed as unmetabolized compound at 10 uM incubated for 120 mins by UPLC-QTOF-PDA analysis. It counts as ADME, cell-based, Macaca fascicularis, Hepatocyte. Conditions: read-out: Drug metabolism.
Data set [17] is described as follows: Cmax in male rat at 150 mg/kg, po BID measured on day 28. In kind it is ADME, organism-based. Details: route oral, dose 150 mg/kg. Conditions: in vivo.
Data set [18] concerns the target T2, Solute carrier family 22 member 6 (Homo sapiens, UniProt Q4U2R8).
T2 sequence (Q4U2R8 whole entry): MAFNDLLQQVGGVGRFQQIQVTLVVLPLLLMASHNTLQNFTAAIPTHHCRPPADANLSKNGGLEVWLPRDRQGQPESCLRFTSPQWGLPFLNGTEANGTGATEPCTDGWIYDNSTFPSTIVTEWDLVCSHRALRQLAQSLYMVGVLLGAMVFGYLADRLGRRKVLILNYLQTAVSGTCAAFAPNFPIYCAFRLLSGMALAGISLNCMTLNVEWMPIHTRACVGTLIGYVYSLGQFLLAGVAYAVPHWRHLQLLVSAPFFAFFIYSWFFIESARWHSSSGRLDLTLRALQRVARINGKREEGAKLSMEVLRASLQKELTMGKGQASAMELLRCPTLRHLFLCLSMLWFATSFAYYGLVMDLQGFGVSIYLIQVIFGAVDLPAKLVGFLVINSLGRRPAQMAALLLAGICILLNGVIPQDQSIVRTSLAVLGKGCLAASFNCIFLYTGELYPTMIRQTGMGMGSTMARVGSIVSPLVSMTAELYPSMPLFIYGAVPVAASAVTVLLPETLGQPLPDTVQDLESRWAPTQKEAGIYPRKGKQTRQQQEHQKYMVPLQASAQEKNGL
Kind of data set: Inhibition of OAT1 (unknown origin) expressed in HEK293 cells. It counts as cell-based.

The target of data set [19] is T3, Solute carrier organic anion transporter family member 1B1 (Homo sapiens, UniProt Q9Y6L6).
T3 sequence (Q9Y6L6 whole entry): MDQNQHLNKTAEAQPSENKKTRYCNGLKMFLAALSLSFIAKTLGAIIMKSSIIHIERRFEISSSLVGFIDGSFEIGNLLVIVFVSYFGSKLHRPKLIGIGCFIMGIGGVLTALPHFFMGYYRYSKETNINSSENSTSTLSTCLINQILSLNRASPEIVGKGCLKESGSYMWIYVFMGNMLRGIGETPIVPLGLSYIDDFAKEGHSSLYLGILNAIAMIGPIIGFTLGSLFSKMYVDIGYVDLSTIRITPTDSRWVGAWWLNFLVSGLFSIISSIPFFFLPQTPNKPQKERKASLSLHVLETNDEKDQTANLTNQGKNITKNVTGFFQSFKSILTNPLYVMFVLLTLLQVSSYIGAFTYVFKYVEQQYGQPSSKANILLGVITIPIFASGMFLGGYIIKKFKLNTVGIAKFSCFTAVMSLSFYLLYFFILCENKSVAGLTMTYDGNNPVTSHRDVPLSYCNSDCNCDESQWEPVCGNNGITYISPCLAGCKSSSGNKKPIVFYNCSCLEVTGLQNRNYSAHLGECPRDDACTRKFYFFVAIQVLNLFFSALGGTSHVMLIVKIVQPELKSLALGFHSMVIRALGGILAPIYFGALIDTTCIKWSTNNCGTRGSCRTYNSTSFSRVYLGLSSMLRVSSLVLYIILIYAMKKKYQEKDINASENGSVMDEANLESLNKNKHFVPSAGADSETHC
Kind of data set: Inhibition of OATP1B1 (unknown origin) expressed in HEK293 cells. In kind it is cell-based.

Data set [20] can be described thus: Drug metabolism in Beagle dog hepatocytes assessed as unmetabolized compound at 10 uM incubated for 120 mins by UPLC-QTOF-PDA analysis. It counts as ADME, cell-based, Canis lupus familiaris, Hepatocyte. Conditions: read-out: Drug metabolism.
A short description of data set [21]: Apparent oral clearance in male cynomolgus monkey at 75 mg/kg, po BID measured on day 8. Conditions: in vivo. It counts as ADME, organism-based, Macaca fascicularis.
Data set [22] is described as follows: Oral bioavailability in male cynomolgus monkey at 275 micromol/kg. In kind it is ADME, organism-based, Macaca fascicularis. Particulars: in vivo, at 275 µmol/kg.
The nature of data set [23]: Oral bioavailability in male cynomolgus monkey at 825 micromol/kg. In kind it is ADME, organism-based, Macaca fascicularis. Particulars: in vivo, at 825 µmol/kg.

One may read the AUC(0-inf) as total exposure, with the tail of the curve extrapolated. What is called solubility is the dissolved amount per volume that the medium holds. What is called half-life is the time in which the quantity being followed falls by half. As usually defined, the AUC(0-t) is exposure summed from dosing to a finite time, without extrapolation to infinity. What is called CL/F is the apparent clearance, not corrected for the fraction that reaches the circulation. In general, Tmax refers to the time from dosing to the highest level. `Cn1cc(C[C@@H](N)C(=O)O)c2ccccc21` [INDOXIMOD]: the AUC(0-inf) in data set [1] was determined as 114 µM·h. Besides, the solubility in data set [2] is < 2 mg/mL. The half-life was 1.8 h in data set [3] and 23 h in data set [7]. The compound also returned an exposure AUC(0-t) at 24 h in [4] of 223 µM·h. Further, the Activity in data set [5] was found to be 0%. In addition, the CL/F in [6] was determined as 82.2 mL/min/kg. Further, in data set [8], the AUC/dose was determined as 1323 µM·h. Also, the Tmax in [9] came out at 2 h.
A word on the Vd: it is a proportionality between amount in the body and measured concentration, not a real space. The Cmax is the highest concentration seen after dosing. For orientation: IC50 means the midpoint of a concentration-inhibition curve. As usually defined, the NOAEL is the highest tested level that showed no adverse finding. Turning to `CCOC(=O)[C@@H](Cc1cn(C)c2ccccc12)NC(=O)[C@@H](N)CC(C)C.Cl`, the Vd in [10] was 309 L/kg. The same compound yielded a TD10 in [11] of 150 mg/kg. In addition, the results for the Cmax in data set [12] and in data set [17] were 170 µM and 169 µM, respectively. The IC50 shift at CYP3A4 came out at 7. For the same compound, the IC50 (against Cytochrome P450 2C8; in data set [18]; in data set [19]) was > 50 µM throughout. The NOAEL in [13] is 60 mg/kg. In addition, in data set [14], the Ratio is given as 690. In data set [15], this compound yielded a solubility of 16.3 mg/mL. Besides, the remaining at 2 h, 10 µM in data set [16] turned out to be 1.3%; in [20], 1.1%. Besides, in data set [21], the CL/F turned out to be 25.6 mL/min/kg. Besides, the F in [22] worked out at 10%; in data set [23], 6%.
